Columns and labels:
[1] = molecular target: T1, Angiotensin-converting enzyme (Oryctolagus cuniculus, UniProt P12822); test: biochemical; type: tissue-based, Lung;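 note: enzymatic inhibition of angiotensin-converting enzyme measured with FAPGG as the substrate; in other assays of this panel Not Active means under 50% inhibition at 10 µM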
T1 sequence (P12822 whole entry): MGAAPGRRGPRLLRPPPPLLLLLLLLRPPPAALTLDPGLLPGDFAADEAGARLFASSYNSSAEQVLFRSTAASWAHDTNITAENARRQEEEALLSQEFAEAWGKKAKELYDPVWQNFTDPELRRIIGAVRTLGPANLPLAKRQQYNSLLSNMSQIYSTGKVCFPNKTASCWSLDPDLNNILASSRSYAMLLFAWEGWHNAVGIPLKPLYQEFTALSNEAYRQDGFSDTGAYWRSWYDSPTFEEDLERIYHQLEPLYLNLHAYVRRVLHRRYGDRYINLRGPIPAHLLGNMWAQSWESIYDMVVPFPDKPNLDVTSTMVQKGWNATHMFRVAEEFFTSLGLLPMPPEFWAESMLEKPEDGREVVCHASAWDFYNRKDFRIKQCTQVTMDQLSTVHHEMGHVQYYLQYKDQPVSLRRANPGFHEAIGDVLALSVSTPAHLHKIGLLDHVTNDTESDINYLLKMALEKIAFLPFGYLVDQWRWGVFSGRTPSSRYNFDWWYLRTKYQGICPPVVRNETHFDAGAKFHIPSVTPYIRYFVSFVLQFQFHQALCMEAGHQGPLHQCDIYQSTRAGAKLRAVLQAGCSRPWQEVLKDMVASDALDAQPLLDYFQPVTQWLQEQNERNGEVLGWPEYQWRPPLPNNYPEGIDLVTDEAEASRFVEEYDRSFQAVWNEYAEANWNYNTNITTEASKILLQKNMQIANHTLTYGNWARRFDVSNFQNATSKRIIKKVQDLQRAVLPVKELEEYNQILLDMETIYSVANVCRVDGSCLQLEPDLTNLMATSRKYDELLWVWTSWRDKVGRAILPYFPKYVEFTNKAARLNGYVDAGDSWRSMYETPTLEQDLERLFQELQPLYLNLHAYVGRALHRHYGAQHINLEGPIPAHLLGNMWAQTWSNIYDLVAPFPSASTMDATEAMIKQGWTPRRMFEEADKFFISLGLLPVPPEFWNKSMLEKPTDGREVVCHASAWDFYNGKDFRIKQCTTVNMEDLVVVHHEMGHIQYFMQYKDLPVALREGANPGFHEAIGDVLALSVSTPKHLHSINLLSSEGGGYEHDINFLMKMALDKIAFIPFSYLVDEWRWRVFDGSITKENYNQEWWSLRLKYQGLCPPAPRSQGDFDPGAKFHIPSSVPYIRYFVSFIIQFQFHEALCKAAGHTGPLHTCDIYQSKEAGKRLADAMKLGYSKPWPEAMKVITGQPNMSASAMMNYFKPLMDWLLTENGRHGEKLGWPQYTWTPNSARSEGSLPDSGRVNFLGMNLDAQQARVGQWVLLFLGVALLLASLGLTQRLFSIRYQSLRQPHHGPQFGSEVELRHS

[2] = molecular target: C-C chemokine receptor type 2 (Homo sapiens, UniProt P41597); type: cell membranes, CHO-K1, Membrane; note: in other assays of this panel Not Active means under 50% inhibition at 10 µM
C-C chemokine receptor type 2, sequence (P41597 whole entry): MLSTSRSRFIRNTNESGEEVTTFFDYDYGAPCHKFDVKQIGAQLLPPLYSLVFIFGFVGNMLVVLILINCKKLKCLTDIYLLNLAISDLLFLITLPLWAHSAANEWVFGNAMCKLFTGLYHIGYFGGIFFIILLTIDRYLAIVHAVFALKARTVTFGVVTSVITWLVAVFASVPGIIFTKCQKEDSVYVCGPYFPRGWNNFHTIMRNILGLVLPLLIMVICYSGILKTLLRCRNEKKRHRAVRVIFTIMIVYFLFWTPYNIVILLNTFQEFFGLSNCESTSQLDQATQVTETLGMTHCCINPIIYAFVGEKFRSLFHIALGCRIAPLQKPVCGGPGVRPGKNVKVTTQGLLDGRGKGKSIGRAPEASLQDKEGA

Cytochrome P450 2E1 = Cytochrome P450 2E1 (Homo sapiens, UniProt P05181); conditions: bti-tn-5b1-4; note: in other assays of this panel Not Active means under 50% inhibition at 10 µM
Cytochrome P450 2E1, sequence (P05181 whole entry): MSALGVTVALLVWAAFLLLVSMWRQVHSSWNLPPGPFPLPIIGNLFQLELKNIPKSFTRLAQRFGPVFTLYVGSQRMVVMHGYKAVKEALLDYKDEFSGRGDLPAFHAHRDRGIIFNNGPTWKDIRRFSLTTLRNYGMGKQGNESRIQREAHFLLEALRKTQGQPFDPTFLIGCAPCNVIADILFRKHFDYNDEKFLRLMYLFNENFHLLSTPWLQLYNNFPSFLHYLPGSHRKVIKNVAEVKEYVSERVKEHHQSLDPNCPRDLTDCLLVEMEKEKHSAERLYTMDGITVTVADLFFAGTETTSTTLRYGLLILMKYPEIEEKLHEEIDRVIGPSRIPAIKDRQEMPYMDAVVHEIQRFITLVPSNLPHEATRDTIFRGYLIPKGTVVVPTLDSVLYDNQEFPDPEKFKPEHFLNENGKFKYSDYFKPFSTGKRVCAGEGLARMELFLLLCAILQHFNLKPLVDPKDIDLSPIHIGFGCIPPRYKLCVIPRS

[3] = molecular target: T2, 3-hydroxy-3-methylglutaryl-coenzyme A reductase (Homo sapiens, UniProt P04035); parameters: species or system Escherichia coli;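 note: enzyme inhibition assay of HMG-CoA reductase using radiolabeled [14C]HMG-CoA as substrate; in other assays of this panel Not Active means under 50% inhibition at 10 µM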
T2 sequence (P04035 whole entry): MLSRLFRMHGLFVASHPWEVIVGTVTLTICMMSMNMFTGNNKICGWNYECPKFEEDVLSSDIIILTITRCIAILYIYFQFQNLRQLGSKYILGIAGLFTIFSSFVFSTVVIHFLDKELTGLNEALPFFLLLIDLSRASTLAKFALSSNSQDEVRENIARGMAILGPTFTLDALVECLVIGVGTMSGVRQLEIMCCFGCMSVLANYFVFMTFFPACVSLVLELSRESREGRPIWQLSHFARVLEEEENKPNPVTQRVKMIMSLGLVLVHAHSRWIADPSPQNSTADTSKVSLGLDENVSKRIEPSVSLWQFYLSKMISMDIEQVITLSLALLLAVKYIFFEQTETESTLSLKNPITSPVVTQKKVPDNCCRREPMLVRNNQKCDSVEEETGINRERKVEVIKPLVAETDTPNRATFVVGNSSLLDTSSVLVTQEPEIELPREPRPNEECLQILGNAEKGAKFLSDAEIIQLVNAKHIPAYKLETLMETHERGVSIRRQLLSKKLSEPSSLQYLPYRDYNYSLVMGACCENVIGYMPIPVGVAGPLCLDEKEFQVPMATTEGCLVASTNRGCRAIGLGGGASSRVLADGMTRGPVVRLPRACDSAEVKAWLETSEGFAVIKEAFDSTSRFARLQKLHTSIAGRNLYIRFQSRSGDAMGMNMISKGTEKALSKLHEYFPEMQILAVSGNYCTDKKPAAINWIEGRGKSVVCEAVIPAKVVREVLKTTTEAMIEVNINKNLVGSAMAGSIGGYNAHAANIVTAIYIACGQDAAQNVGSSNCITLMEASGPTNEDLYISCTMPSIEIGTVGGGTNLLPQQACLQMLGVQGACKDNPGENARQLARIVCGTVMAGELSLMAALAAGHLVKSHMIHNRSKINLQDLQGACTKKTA

[4] = DRUGMATRIX: Nicotinic Acetylcholine radioligand binding (ligand: [125I] Epibatidine); type: cell membranes, Membrane; conditions: imr-32, Not Active = under 50% inhibition at 10 µM
[5] = DRUGMATRIX: Interleukin IL-1 radioligand binding (ligand: [125I] interleukin 1beta); type: cell membranes, Membrane; conditions: nih3t3; Not Active = under 50% inhibition at 10 µM

SMILES | IC50 [1] | IC50 ([2]; cho-k1) | IC50 (Cytochrome P450 2E1) | Ki (Cytochrome P450 2E1) | IC50 [3] | IC50 [4] | Ki [4] | IC50 [5] | Ki [5] | IC50 ([1]; read-out: IC50) [nM] | IC50 ([2]; read-out: IC50) [nM] | Ki ([2]; read-out: Ki) [nM] | IC50 ([4]; read-out: IC50) [nM] | Ki ([4]; read-out: Ki) [nM]
CC12CCC(CC1)C(C)(C)O2 [EUCALYPTOL] | Not Active | Not Active | Not Active | Not Active | Not Active | Not Active | Not Active | Not Active | Not Active | – | – | – | – | –
Oc1ccccc1 [PHENOL] | Not Active | Not Active | Not Active | Not Active | Not Active | Not Active | Not Active | Not Active | Not Active | – | – | – | – | –
Nc1ccc(C(=O)O)c(O)c1 [AMINOSALICYLIC ACID] | Not Active | Not Active | Not Active | Not Active | Not Active | Not Active | Not Active | Not Active | Not Active | – | – | – | – | –
O=c1[nH]cnc2c1ncn2[C@H]1CC[C@@H](CO)O1 [DIDANOSINE] | Not Active | Not Active | Not Active | Not Active | Not Active | Not Active | Not Active | Not Active | Not Active | – | – | – | – | –
CC(=O)[C@]1(O)Cc2c(O)c3c(c(O)c2[C@@H](O[C@H]2C[C@H](N)[C@H](O)[C@H](C)O2)C1)C(=O)c1ccccc1C3=O [IDARUBICIN] | Not Active | Not Active | Not Active | Not Active | Not Active | Not Active | Not Active | Not Active | Not Active | – | – | – | – | –
COC(=O)Nc1nc2ccc(Sc3ccccc3)cc2[nH]1 [FENBENDAZOLE] | Not Active | Not Active | Not Active | Not Active | Not Active | Not Active | Not Active | Not Active | Not Active | – | – | – | – | –
C=C(Cl)Cl [1,1-DICHLOROETHENE] | Not Active | Not Active | Not Active | Not Active | Not Active | Not Active | Not Active | Not Active | Not Active | – | – | – | – | –
C=CCO [ALLYL ALCOHOL] | Not Active | Not Active | Not Active | Not Active | Not Active | Not Active | Not Active | Not Active | Not Active | – | – | – | – | –
Cc1c(N)nc([C@H](CC(N)=O)NC[C@H](N)C(N)=O)nc1C(=O)N[C@H](C(=O)N[C@H](C)[C@@H](O)[C@H](C)C(=O)N[C@H](C(=O)NCCc1nc(-c2nc(C(=O)NCCC[S+](C)C)cs2)cs1)[C@@H](C)O)[C@@H](O[C@@H]1O[C@@H](CO)[C@@H](O)[C@H](O)[C@@H]1O[C@H]1O[C@H](CO)[C@@H](O)[C@H](OC(N)=O)[C@@H]1O)c1c[nH]cn1.[Br-] [BLEOMYCIN A2] | – | Not Active | Not Active | Not Active | Not Active | Not Active | Not Active | Not Active | Not Active | 588 | – | – | – | –
Nc1ccc(Cc2ccc(N)cc2)cc1 | Not Active | Not Active | Not Active | Not Active | Not Active | Not Active | Not Active | Not Active | Not Active | – | – | – | – | –
O=C(O)c1ccccc1 [BENZOIC ACID] | Not Active | Not Active | Not Active | Not Active | Not Active | Not Active | Not Active | Not Active | Not Active | – | – | – | – | –
C[C@H]1C[C@H]2[C@@H]3CCC4=CC(=O)C=C[C@]4(C)[C@@]3(F)[C@@H](O)C[C@]2(C)[C@@]1(O)C(=O)CO [BETAMETHASONE] | Not Active | Not Active | Not Active | Not Active | Not Active | Not Active | Not Active | Not Active | Not Active | – | – | – | – | –
NS(=O)(=O)c1cc(C(=O)O)c(NCc2ccco2)cc1Cl [FUROSEMIDE] | Not Active | Not Active | Not Active | Not Active | Not Active | Not Active | Not Active | Not Active | Not Active | – | – | – | – | –
ClC1=C(Cl)[C@]2(Cl)[C@@H]3[C@@H]4C[C@@H]([C@H]5O[C@@H]45)[C@@H]3[C@@]1(Cl)C2(Cl)Cl [DIELDRIN] | Not Active | Not Active | Not Active | Not Active | Not Active | Not Active | Not Active | Not Active | Not Active | – | – | – | – | –
c1ccc2sc(SSc3nc4ccccc4s3)nc2c1 [BENZOTHIAZYL DISULFIDE] | Not Active | – | Not Active | Not Active | Not Active | Not Active | Not Active | Not Active | Not Active | – | 2410 | 929 | – | –
C[N+](C)(C)CCOC(N)=O.[Cl-] [CARBACHOL] | Not Active | Not Active | Not Active | Not Active | Not Active | – | – | Not Active | Not Active | – | – | – | 1000 | 334
O=C1c2ccccc2C(=O)C1c1ccccc1 [PHENINDIONE] | Not Active | Not Active | Not Active | Not Active | Not Active | Not Active | Not Active | Not Active | Not Active | – | – | – | – | –
CC(C)NCC(O)COc1ccc(CC(N)=O)cc1 (stereo not drawn) [ATENOLOL] | Not Active | Not Active | Not Active | Not Active | Not Active | Not Active | Not Active | Not Active | Not Active | – | – | – | – | –

Reference: ChEMBL document CHEMBL1909046, “DrugMatrix in vitro pharmacology data”
